The values below come from patent publication US10806798B2, “Compound with effects of thrombolysis, free radical scavenging and thrombus-targeting” (Shanghai Lumosa Therapeutics Co., Ltd., priority 2012, dated 2020).

Side chains are listed from the residue outwards. Ends that are not written are not given here.

In assay [1] the test system is thrombus from rat arterial blood. Nature of the assay: In vitro thrombolysis. Also on record: species or system SD rats. The conditions noted are these: 100 nM, 2 h at 37° C., n = 6. As for the experimental part: SD rats (male, 350 to 400 g) were anaesthetized by intraperitoneal injection of a urethane solution at a dosage of 1200 mg/kg. The anaesthetized rats were fixed in a supine position, and the right common carotid artery was dissected, clamped at the proximal end with an arterial clip, and penetrated with a suture at the proximal and distal ends, respectively. The suture at the distal end is clipped tightly by a hemostatic clamp at the fur. Cannulation was performed at the distal end, the artery clamp was removed, and the total arterial blood was discharged into a 50 ml container previously treated with silicone oil. […] rat arterial blood was injected into a vertically fixed glass tube (20 mm in length, with an inner diameter of 4 mm and an outer diameter of 5 mm, sealed with a rubber stopper at the bottom), into which was immediately inserted a thrombus immobilization screw made of stainless steel. […] 40 min after the blood was coagulated, the rubber stopper at the bottom of the glass tube was removed, the stem of the thrombus immobilization screw was nipped by forceps, and the thrombus-wrapped thrombus immobilization screw was carefully taken out from the glass tube. The screw was then suspended and dipped in triple-distilled water to remove excessive blood, and accurately weighed after 1 h. The thrombus was suspended in 8 mL of normal saline, or a solution of compounds Ia-Il in normal saline (at a concentration of 100 nM), or a solution of ARPAK (SEQ. ID NO. 4), GRPAK (SEQ. ID NO. 5), RPAK (SEQ. ID NO. 3) or PAK in normal saline (at a concentration of 100 nM), or a solution of urokinase in normal saline (100 IU/mL), then shaked at 37° C. in a thermostatic shaker (63 r/min), and removed after 2 h and accurately weighed to determine the weight of the thrombus.

Assay [2] deals with thrombus. Nature of the assay: In vivo thrombolysis, rat arteriovenous bypass thrombolysis model. To be noted: 0.1 μmol/kg, after 1 h, n = 10. The arrangement: species or system SD rats. As for the experimental part:
SD rats (male, 220 to 230 g) were anaesthetized by intraperitoneal injection of a urethane solution at a dosage of 1200 mg/kg. The anaesthetized rats were fixed in a supine position, and the right common carotid artery was dissected, clamped at the proximal end with an arterial clip, and penetrated with a suture at the proximal and distal ends, respectively. The suture at the distal end is clipped tightly by a hemostatic clamp at the fur. Cannulation was performed at the distal end, the arterial clamp was removed, and about 1 ml arterial blood was discharged into a 1 ml eppendorf. 0.1 ml rat arterial blood was injected into a vertically fixed glass tube (15 mm in length, with an inner diameter of 2.5 mm and an outer diameter of 5.0 mm, sealed with a rubber stopper at the bottom), into which was immediately inserted a thrombus immobilization screw made of stainless steel. […] 15 min after the blood was coagulated, the rubber stopper at the bottom of the glass tube was removed, the stem of the thrombus immobilization screw was nipped by forceps, and the thrombus-wrapped thrombus immobilization screw was carefully taken out of the glass tube and then accurately weighed.
A bypass cannula was composed of 3 segments. The middle segment was a polyethylene tubing having a length of 60.0 mm and an inner diameter of 3.5 mm. The segments on both ends were similar polyethylene tubes having a length of 100.0 mm, an inner diameter of 1.0 mm and an outer diameter of 2.0 mm, one end of which was pulled to form a tip, with an outer diameter of 1.0 mm, that could be inserted into the rat carotid artery or vein, and the other end of which was sheathed by a polyethylene tube having a length of 7.0 mm and an outer diameter of 3.5 mm (thickened in order to be inserted into the polyethylene tubing of the middle segment). The inner wall of the 3-segment cannula was entirely silylated (with 1% silicone oil in ethyl ether). The thrombus-wrapped thrombus immobilization screw was placed into the polyethylene tubing of the middle segment, and both ends of the tubing sheathed the thickened ends of the two polyethylene tubes. The cannula was filled with a heparin solution in normal saline (50 IU/kg) through the tip end by using an injector and was ready for use. The trachea of the anaesthetized rat was then dissected and tracheal cannulation was performed. The left external carotid vein of the rat was dissected, and penetrated with a suture at the proximal and distal ends, respectively. An uneven open incision was careful made on the exposed left external carotid vein, and the tip of the bypass cannula prepared as described above was inserted into the proximal end of the open incision in the left external carotid vein, away from the stem of the thrombus immobilization screw in the middle segment of the bypass cannula (which accommodated the accurately weighed thrombus immobilization screw). A precise amount of heparin in saline (50 IU/kg) was injected through the tip at the other end by using an injector. At this moment, without removing the injector from the ethylene tube, the tubing between the injector and the polyethylene tube was clamped with forceps. The blood flow was stopped by clamping the proximal end of the right common carotid artery with an arterial clip, and an uneven open incision was cut carefully across the common carotid artery near the clip. The injector was pulled out of the tip of the polyethylene tube, and the tip of the polyethylene tube was then inserted into the proximal end of the artery open incision. Both ends of the bypass cannula were fixed to the artery or vein with #4 sutures. […]

For another assay, the system named is rats with stroke. Nature of the assay: Cerebral infarction volume after immediate treatment of stroke (TTC staining). In kind it is in vivo, SD rats. The conditions noted are these: n = 10. As for the experimental part: After the rats were awake for 24 h and assessed for their degree of damage in neural function in Experimental example 6, they were anesthesized with urethane followed by immediate decapitation and removal of the brain. Brain tissues were kept in a −20° C. refrigerator for 2 h, and coronal sections of about 2 mm were successively sliced from the prefrontal end for a total of 6 sections, and then placed into a 2% TTC solution to incubate in darkness at 37° C. for 30 min. The color change in brain sections was observed: normal brain tissues were stained red by TTC, while ischemic brain tissues, i.e., brain tissues with infracts, appeared in a white color. Photographs were taken by using a digital camera and processed with SPSS statistics software, and the volume of infarction in brain tissues and the volume of normal brain tissues in the coronal sections were calculated.

For the next assay, the system named is euglobulin clot. Nature of the assay: Euglobulin clot lysis. The assay is classed as biochemical, Pig. To be noted: 10 μL of 1 mM solution; after 4 h; n = 3. As for the experimental part:
Pig blood was taken and mixed with 3.8% sodium citrate in a volume ratio of 9:1, immediately centrifuged at 3000 r/min for 10 min, and platelet-poor plasma was separated. 2 mL platelet-poor pig plasma and 36 mL ultrapure water were added into a 50 mL centrifuge tube. In each tube, 0.4 mL acetic acid (1%) was added and thoroughly mixed, and the tube was placed in a 4° C. refrigerator for 10 min and then centrifuged at 3000 r/min for 10 min. The centrifuge tubes were inverted, and then the inner wall of the tubes was dried using a filter paper after the liquid was drained. The euglobuin pellets resulting from centrifugation was freeze-dried for about 40 min and scratched out. About 35 mg euglobuin was taken and dissolved in 7 ml borax buffer (pH 9.28). The euglobuin were mostly dissolved after 1 h, into which 0.7 mL CaCl2 solution (25 mM) was added, and immediately plated on a 10×10 cm glass plate with a thickness of about 1 mm. After clot formation, 10 μL normal saline, or 10 μL of a solution of one of compounds Ia to Il in normal saline (1 mM) or 10 μL of a urokinase solution in normal saline (0.8 mg/mL) was pipetted and spotted onto the clot plate, with an interval between every two drops more than 1.5 cm, and each sample was spotted 3 times.

For assay [3], the system named is thrombus. Nature of the assay: In vivo anti-thrombus experiment (arteriovenous cannula with thread). Also on record: species or system SD rats. The conditions noted are these: 0.1 μmol/kg by gavage; n = 11.
Description: SD rats (male, 220 to 230 g) were randomly divided into groups with 11 rats in each group. The rats were fed at a resting state for 1 day and fasted overnight. […] After 30 min, the rats were anesthetized with a 20% urethane solution, and the right carotid artery and the left carotid vein were dissected. A cannula was filled with sodium heparin in normal saline, and one end thereof was inserted into the left vein, while the other end was injected with a certain amount of sodium heparin for anticoagulation with an injector and then inserted into the right artery. Blood flew from the right artery to the left vein through the polyethylene tubing, and the thread attached with thrombus was taken out after 15 min and the weight thereof was recorded. The wet thrombus weight was determined by subtracting the thread weight from the total weight.

Take “1,3-dioxo-2-{4′-oxyacetyl-[N^ω-(Pro-Ala-Lys)-Lys-Arg-Gly-Asp-Phe]phenyl}-4,4,5,5-tetramethylimidazoline (K([Lys-Ala-Pro])RGDF; not fully specified (N-terminus); also: 4′-oxyacetylphenyl-1,3-dioxo-4,4,5,5-tetramethylimidazoline (nitronyl nitroxide) conjugate, attachment amine not clear) [Il]”: the “Weight reduction in thrombus (Mean ± SD mg)” value in assay [1] is 25.83 ± 2.31 mg; with thrombus [2], 16.21 ± 2.84 mg. Moreover, in the assay with rats with stroke, the “Percentage of infarction volume (Mean ± SD %)” value is 6.56 ± 0.41%. Moreover, the “Diameter (Mean ± SD mm) of euglobulin clot lysis” value with euglobulin clot came to 4.2 mm. Moreover, the “Wet weight of thrombus (Mean ± SD mg)” value in the assay with thrombus [3] was determined as 19.32 ± 2.56 mg.
As for “1,3-dioxo-2-{4′-oxyacetyl-[N^ω-(Arg-Pro-Ala-Lys)-Lys-Arg-Gly-Asp-Phe]phenyl}-4,4,5,5-tetramethylimidazoline [Ii]”, the “Weight reduction in thrombus (Mean ± SD mg)” value in assay [1] came out at 24.83 ± 1.17 mg; in the assay on thrombus [2] it was 15.73 ± 2.95 mg. Also, the “Percentage of infarction volume (Mean ± SD %)” value with rats with stroke is 7.06 ± 1.08%. Besides, the “Diameter (Mean ± SD mm) of euglobulin clot lysis” value in the assay with euglobulin clot is 4.0 mm. Besides, the “Wet weight of thrombus (Mean ± SD mg)” value with thrombus [3] came out at 17.79 ± 2.02 mg.
